According to patent publication US20250017206A1, “METHODS FOR PREVENTING OR REDUCING BACTERIAL INFECTION OF PLANT SEEDS” (priority 2022, published 2025):
“Also recorded” adds a separate entry of the source.

Assays:
Acidovorax citrulli = test: A. citrulli growth on LB agar growth medium containing tea, extracts or compounds; type: cell-based; conditions: for inhibition of A. citrulli (summary): compound alone in culture
Procedure: A. citrulli growth on LB agar medium was assessed after treatment with commercial brands of black and green teas and their constituent compounds to determine inhibitory effects. Dried loose tea leaves were boiled in distilled water, strained, and liquid added to LB agar growth medium to assess concentration effects. Five grams of loose-leaf tea was autoclaved in 200 mL distilled water for 25 minutes in the liquid cycle. After autoclaving, the tea was cooled to room temperature and filtered using Whatman #1 filter paper. The filtered tea was adjusted by spectrophotometry (DU 800, Beckman Coulter) to 4.0, 3.0, 2.0, 1.0, and 0.5 at OD390.
Luria Broth (LB) agar growth medium was prepared by mixing 10 grams of tryptone, 5 grams of yeast extract, and 10 grams of sodium chloride, and 15 grams of Bacto™ Agar Solidifying Agent (BD Diagnostics) in 1 liter of distilled water (pH: 7.5) before autoclaving. Collected bacteria were resuspended in autoclave-sterilized 10 mM MgCl2, and adjusted to 1.0, 0.5, 0.1, 0.01, and 0.001 OD600 spectrophotometry.
1 mL of each standard compound was added to 10 mL of LB agar growth medium.
Growth curve on growth medium containing inhibitory extracts and compounds to test whether Acidovorax citrulli could grow in the presence of green and black teas and some of their constituents, growth analysis was conducted in Petri dishes on solid LB agar containing tea or its extracts to quantitate bacterial growth inhibition. We also wanted to see whether tea and its constituents affected antibiotic resistance by comparing growth on both LB agar and Rifampicin containing LB agar. […] For the second stage, effects were verified by blotting 20 μL of inoculum with 9 1:10 serial dilutions to be able to count bacterial colonies. After growth medium solidified, 5 μL of bacterial inoculum adjusted at OD600: to 1.0, 0.5, 0.1, 0.01, or 0.001 (at first stage) and 20 μL of bacterial inoculum adjusted to OD600: 10^0, 10^−1, 10^−2, 10^−3, 10^−4, 10^−5, 10^−6, 10^−7, 10^−8, 10^−9 were blotted on the LB agar growth medium, containing tea samples or other extracts (1:10 mL). The Petri dishes inoculated with bacteria were incubated at 28° C. for 72 h in dark. Autoclaved distilled water was added to growth medium in a separate replicate with 5 μL of 10 mM MgCl2 and bacteria as a negative control. In order to check if additional distilled water affected bacterial growth, growth on LB medium with and without water was compared. Results were compared by colonies. When colonies could not be separated, bacterial growth was scored between 1 and 0 depending on the amount of growth on the surface of the blot.

[1] = system: A. citrulli strain AAC00-1; conditions: components of cinnamon oil; Choi et al. (2016); cited from earlier work

In the case of `O=C(O[C@@H]1Cc2c(O)cc(O)cc2O[C@@H]1c1ccc(O)c(O)c1)c1cc(O)c(O)c(O)c1` [ECG, epicatechin gallate, reference compound], the “bacterial growth at 0.5 mM” value (Acidovorax citrulli; 0.5 mM, AA000-1, maximum bacterial concentration OD600 0.01) is reported as “inhibited bacterial growth” and the “bacterial growth at 1.5 mM” value (Acidovorax citrulli; AAC00-1, 1.5 mM, bacterial OD600 1.0) is reported as “completely inhibitory; also recorded: inhibited all bacterial growth”.

With `Oc1cc(O)c2c(c1)O[C@H](c1cc(O)c(O)c(O)c1)[C@H](O)C2` [EGC, epigallocatechin, reference compound] the “bacterial growth at 1 mM EGC” value (Acidovorax citrulli; 1 mM, bacteria OD600 0.1 and 0.01) was “efficient inhibitor; also recorded: inhibited bacterial growth on 0.1 dilution of bacteria”, the “bacterial growth at 0.5-1-1.5 mM EGC” value (Acidovorax citrulli; AAC00-1 OD600 1.0-0.001, 0.5-1-1.5 mM) was “did not show inhibitory effects; also recorded: showed no inhibition” and the “minimum concentration required for inhibition” value (Acidovorax citrulli; bacterial concentration OD600 0.001, AAC00-1) was 0.5 mM.

In the case of `O=Cc1ccccc1` [benzaldehyde], the “antibacterial activities against strain AAC00-1” value [1] is listed as “exhibited antibacterial activities”.

For `Cn1c(=O)c2c(ncn2C)n(C)c1=O` [caffeine, reference compound], the “inhibition of A. citrulli (summary)” value (Acidovorax citrulli) was “not inhibitory”.

For `O=CC=Cc1ccccc1` [cinnamaldehyde], the “antibacterial activities against strain AAC00-1” value [1] is listed as “exhibited antibacterial activities”.

With catechin the “bacterial colony growth at 10 mM catechin” value (Acidovorax citrulli; AAC00-1, 0.1, 1, 10 mM compared, only 10 mM inhibitory, with or without rifampicin) was “inhibitory; also recorded: inhibited bacterial growth”, the “effect of antibiotic presence on bacterial colony growth inhibition by catechin” value (Acidovorax citrulli; AAC00-1, catechin 0.1, 1, 10 mM, with or without rifampicin 100 μg/mL) was “No difference” and the “bacterial growth at 5-10-15 mM” value (Acidovorax citrulli; AAC00-1 OD600 1.0-0.001, 5-10-15 mM) was “inhibited all bacterial growth”. The “inhibition of A. citrulli (summary)” value (Acidovorax citrulli) was “strongly inhibitory”, the “bacterial colony growth at 1 mM” value (Acidovorax citrulli; final concentration 1 mM in LB agar with rifampicin 100 μg/mL, M6, AAC00-1, aacI, aacR, OD600 1.0-0.001) was “inhibited A. citrulli; also recorded: inhibited some lower density colonies of bacteria” and the “bacterial colony growth at 10 mM” value (Acidovorax citrulli; final concentration 10 mM in LB agar with rifampicin 100 μg/mL, M6, AAC00-1, aacI, aacR, OD600 1.0-0.001) was “inhibited A. citrulli; also recorded: completely inhibited bacterial growth; also recorded: inhibited growth of all bacterial strains”. The “less A. citrulli growth in catechin treatments compared to caffeine treatment” value (Acidovorax citrulli; overall, 3-Way ANOVA, 95% significance level) was roughly 25% and the “inhibition of A. citrulli compared with black tea and caffeine” value (Acidovorax citrulli; preliminary, data not shown) was “greater than black tea and caffeine”.
